Assay results: patent US7741520B2, “Sulfonanilide analogs as selective aromatase modulators (SAMs)” (The Ohio State University Research Foundation, priority 2006, dated 2010)

Columns and labels:
[1] = target: T1, aromatase activity in JAR choriocarcinoma placental cells (Homo sapiens, UniProt P11511); experiment: Tritiated water-release assay in JAR cells; type: cell-based; conditions: 24 h, 15 μM (FIG. 11), read-out: decrease of aromatase activity in JAR cells
T1 construct: JAR choriocarcinoma placental cells (which produce aromatase expression from promoter I.1 mediated by protein kinase C); host or cells: JAR
T1 sequence (P11511 1-503): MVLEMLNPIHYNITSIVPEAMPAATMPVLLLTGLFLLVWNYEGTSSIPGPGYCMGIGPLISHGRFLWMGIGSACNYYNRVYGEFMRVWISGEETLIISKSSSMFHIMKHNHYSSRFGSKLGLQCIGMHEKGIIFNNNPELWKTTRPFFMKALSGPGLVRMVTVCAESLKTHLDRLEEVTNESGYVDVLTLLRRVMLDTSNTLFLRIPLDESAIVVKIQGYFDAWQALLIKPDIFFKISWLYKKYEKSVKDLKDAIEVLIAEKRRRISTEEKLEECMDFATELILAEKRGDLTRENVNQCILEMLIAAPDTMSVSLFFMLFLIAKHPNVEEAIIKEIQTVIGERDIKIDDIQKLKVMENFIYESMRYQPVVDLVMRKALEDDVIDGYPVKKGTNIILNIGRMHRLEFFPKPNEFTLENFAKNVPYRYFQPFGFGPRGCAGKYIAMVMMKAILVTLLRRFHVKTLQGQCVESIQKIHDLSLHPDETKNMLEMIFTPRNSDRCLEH
Protocol: Cell Culture. AR and SK-BR-3 cells were obtained from ATCC (Rockville, Md.). SK-BR-3 cells were maintained in phenol red-free custom media (MEM, Earle's salts, 1.5× amino acids, 2× non-essential amino acids, L-glutamine, 1.5× vitamins, Gibco BRL) supplemented with 10% fetal bovine serum (FBS), 2 mM L-glutamine and 20 mg/L gentamycin. JAR cells were maintained in RPMI 1640 medium with 2 mM L-glutamine adjusted to contain 1.5 g/L sodium bicarbonate, 4.5 g/L glucose, 10 mM HEPES, and 1.0 mM sodium pyruvate, 90%; FBS, 10%. Fetal bovine serum was heat inactivated for 30 min in a 56° C. water bath before use. Cell cultures were grown at 37° C., in a humidified atmosphere of 5% CO2 in a Hereaus CO2 incubator. For all experiments, cells were plated in 6 well plates and grown to subconfluency. Before treatment, the media was changed to a defined one containing DMEM/F12 media (Sigma) with 1.0 mg/mL human albumin (OSU Hospital Pharmacy), 5.0 mg/L human transferin and 5.0 mg/L bovine insulin.
Tritiated water-release assay in JAR and SK-BR-3 cell lines. Measurement of aromatase enzyme activity was based on the tritium water release assay. Cells in six well plates were treated with 0.1% DMSO (control), and inhibitors at the indicated concentrations. After 24 hours, the cells were incubated 3 hours (SK-BR-3 cells) or 1 hour (JAR cells) with fresh media along with 100 nM [1β-^3H]-androst-4-ene-3,17-dione (1 μCi). Subsequently, the reaction mixture was removed, and proteins were precipitated using 10% trichloroacetic acid at 42° C. for 20 min. After a brief centrifugation, the media was extracted three times with an equal amount of chloroform to remove remaining substrate and further treated with dextran-treated charcoal. After centrifugation, a 250-μl aliquot containing the product was counted in 5 ml of liquid scintillation mixture. Results were corrected for blanks and for the cell contents of culture flasks, and results were expressed as picomoles of ^3H2O formed per hour incubation time per million live cells (pmol/h/10^6 cells). To determine the amount of cells in each flask, the cells were lysed and analyzed using the diphenylamine DNA assay adapted to a 96-well plate. IC50 sigmoidal dose-response data were analyzed with Microsoft Excel and the Graphpad Prism (Version 3.0) program.
Diphenylamine DNA Assay To determine the amount of viable cells in each flask, the cells were lysed with 0.5N NaOH aqueous solution and analyzed using the diphenylamine DNA assay adapted to a 96-well plate. DNA standards (0-30 μg) were prepared using double-stranded DNA reconstituted in PBS and added in triplicates directly to the wells. A uniform cell suspension was prepared from the 6 well plate in 300 μl 0.5N NaOH aqueous solution, and 60 μl of the unknown samples were added in triplicates to separate wells. A solution of 0.16% acetaldehyde in water was prepared and mixed at a 1:5 ratio with perchloric acid (20% vol/vol). This solution (60 μl) was added to each well along with 100 μl of a 4% diphenylamine solution in glacial acetic acid. The plates were incubated at 37° C. for 24 hours. After centrifugation, 100 μl supernatant of each well was transferred to a new 96 well plate, and the OD595 was measured using a microplater reader. The DNA concentration was determined by extrapolation to the standard curve and the amount of cells/well was calculated using the equation: 1 cell≈7 pg DNA.

Row | inhibition at 15 µM [1] | melting point | Structure (SMILES)
1 | < 50% | – | CN(c1ccc([N+](=O)[O-])cc1OCc1ccccc1)S(C)(=O)=O [Compound 26f, N-methyl-N-(2-benzyloxy-4-nitrophenyl) methanesulfonamide]
2 | < 50% | – | CN(c1ccc([N+](=O)[O-])cc1OCc1ccc([N+](=O)[O-])cc1)S(C)(=O)=O [Compound 27c, N-methyl-N-[2-(4′-nitrobenzyloxy)-4-nitrophenyl]methanesulfonamide]
3 | < 50% | 119 to 121 °C | CN(c1ccc([N+](=O)[O-])cc1OCc1ccc2ccccc2c1)S(C)(=O)=O [Compound 28c, N-methyl-N-[2-(β-naphthylmethoxy) 4-nitrophenyl]methanesulfonamide]
4 | < 50% | 128 to 129 °C | CN(c1ccc([N+](=O)[O-])cc1OCc1ccccc1-c1ccccc1)S(C)(=O)=O [Compound 29c, N-methyl-N-[2-(2′-phenylbenzyloxy)-4-nitrophenyl]methanesulfonamide]
5 | < 50% | 96 to 98 °C | Cc1ccc(COc2cc([N+](=O)[O-])ccc2N(C)S(C)(=O)=O)cc1 [Compound 30c, N-methyl-N-[2-(4′-methylbenzyloxy)-4-nitrophenyl]methanesulfonamide]
6 | < 50% | 168 to 169 °C | CN(c1ccc([N+](=O)[O-])cc1OCc1ccc(F)cc1)S(C)(=O)=O [Compound 33c, N-methyl-N-[2-(4′-fluorobenzyloxy)-4-nitrophenyl]methanesulfonamide]
